Assay results as given in ChEMBL document CHEMBL1127866, “Cyclopentanespiro-3H-dihydro-pyrimidinones as Angiotensin II AT1 receptor antagonists” (Bioorg Med Chem Lett, 1994).

Assays:
[1] = target: T1, Type-1 angiotensin II receptor B (Rattus norvegicus, UniProt P29089); test: In vitro inhibition of specific binding of [125I]AII to Angiotensin II receptor, type 1 from rat liver membrane
T1 sequence (P29089 whole entry): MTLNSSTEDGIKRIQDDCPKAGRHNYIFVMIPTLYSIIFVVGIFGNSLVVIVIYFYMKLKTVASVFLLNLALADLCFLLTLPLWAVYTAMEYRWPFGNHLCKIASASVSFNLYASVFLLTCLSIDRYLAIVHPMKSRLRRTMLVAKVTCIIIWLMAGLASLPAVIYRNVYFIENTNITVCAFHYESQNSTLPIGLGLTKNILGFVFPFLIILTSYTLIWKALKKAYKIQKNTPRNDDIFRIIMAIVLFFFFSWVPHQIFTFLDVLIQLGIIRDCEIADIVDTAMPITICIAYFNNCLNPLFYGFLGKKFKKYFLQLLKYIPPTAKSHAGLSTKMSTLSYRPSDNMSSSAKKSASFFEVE

Monkey [2] = test: Tested for induced pressor response to AII (100 ng/kg, iv) in conscious normotensive monkey at a compound dose of 3 mg/kg po for 0 hr; format: functional, Cercopithecidae
Monkey [3] = test: Tested for induced pressor response to AII (100 ng/kg, iv) in conscious normotensive monkey at a compound dose of 3 mg/kg po for 3 hr; format: functional, Cercopithecidae
Monkey [4] = test: Tested for induced pressor response to AII (100 ng/kg, iv) in conscious normotensive monkey at a compound dose of 3 mg/kg po for 4 hr; format: functional, Cercopithecidae
Monkey [5] = test: Tested for induced pressor response to AII (100 ng/kg, iv) in conscious normotensive monkey at a compound dose of 3 mg/kg po for 2 hr; format: functional, Cercopithecidae
Monkey [6] = test: Tested for induced pressor response to AII (100 ng/kg, iv) in conscious normotensive monkey at a compound dose of 3 mg/kg po for 1 hr; format: functional, Cercopithecidae
Rattus norvegicus [7] = test: Tested for induced pressor response to AII (40 ng/kg, iv) in conscious normotensive rats at a compound dose of 3 mg/kg po for 0 min; format: functional
Rattus norvegicus [8] = test: Tested for induced pressor response to AII (40 ng/kg, iv) in conscious normotensive rats at a compound dose of 3 mg/kg po for 120 min; format: functional
Rattus norvegicus [9] = test: Tested for induced pressor response to AII (40 ng/kg, iv) in conscious normotensive rats at a compound dose of 3 mg/kg po for 90 min; format: functional
Rattus norvegicus [10] = test: Tested for induced pressor response to AII (40 ng/kg, iv) in conscious normotensive rats at a compound dose of 3 mg/kg po for 15 min; format: functional
Rattus norvegicus [11] = test: Tested for induced pressor response to AII (40 ng/kg, iv) in conscious normotensive rats at a compound dose of 3 mg/kg po for 30 min; format: functional
Rattus norvegicus [12] = test: Tested for induced pressor response to AII (40 ng/kg, iv) in conscious normotensive rats at a compound dose of 3 mg/kg po for 60 min; format: functional
Rattus norvegicus [13] = test: Tested for induced pressor response to AII (40 ng/kg, iv) in conscious normotensive rats at a compound dose of 3 mg/kg po for 180 min; format: functional
Monkey [14] = test: Tested for induced pressor response to AII (100 ng/kg, iv) in conscious normotensive monkey at a compound dose of 3 mg/kg po for 5 hr; format: functional, Cercopithecidae

Row | SMILES | IC50 [1] [nM] | Delta MAP (Monkey [2]) [mmHg] | Delta MAP (Monkey [3]) [mmHg] | Delta MAP (Monkey [4]) [mmHg] | Delta MAP (Monkey [5]) [mmHg] | Delta MAP (Monkey [6]) [mmHg] | Delta MAP (Rattus norvegicus [7]) [mmHg] | Delta MAP (Rattus norvegicus [8]) [mmHg] | Delta MAP (Rattus norvegicus [9]) [mmHg] | Delta MAP (Rattus norvegicus [10]) [mmHg] | Delta MAP (Rattus norvegicus [11]) [mmHg] | Delta MAP (Rattus norvegicus [12]) [mmHg] | Delta MAP (Rattus norvegicus [13]) [mmHg] | Delta MAP (Monkey [14]) [mmHg]
1 | CCCCC1=NC(=O)C2(CCCC2)CN1Cc1ccc(-c2ccccc2C(=O)O)cc1 | 1300 |  |  |  |  |  |  |  |  |  |  |  |  | 
2 | CCCCC1=NCC2(CCCC2)C(=O)N1Cc1ccc(-c2ccccc2C(=O)O)cc1 | 71 |  |  |  |  |  |  |  |  |  |  |  |  | 
3 | CCCCC1=NC2(CCCC2)C(=O)N1Cc1ccc(-c2ccccc2-c2nnn[nH]2)cc1 [IRBESARTAN] |  | ~33 | ~18 | ~23 | ~15 | ~9 | ~45 | ~18 | ~17 | ~22 | ~22 | ~20 | ~17 | ~25

Second part, led by results:

Row | IC50 [1] [nM] | SMILES | Delta MAP (Monkey [2]) [mmHg] | Delta MAP (Monkey [3]) [mmHg] | Delta MAP (Monkey [4]) [mmHg] | Delta MAP (Monkey [5]) [mmHg] | Delta MAP (Monkey [6]) [mmHg] | Delta MAP (Rattus norvegicus [7]) [mmHg] | Delta MAP (Rattus norvegicus [8]) [mmHg] | Delta MAP (Rattus norvegicus [9]) [mmHg] | Delta MAP (Rattus norvegicus [10]) [mmHg] | Delta MAP (Rattus norvegicus [11]) [mmHg] | Delta MAP (Rattus norvegicus [12]) [mmHg] | Delta MAP (Rattus norvegicus [13]) [mmHg] | Delta MAP (Monkey [14]) [mmHg]
4 | 53 | CCCCC1=NC2(CCCC2)CC(=O)N1Cc1ccc(-c2ccccc2C(=O)O)cc1 |  |  |  |  |  |  |  |  |  |  |  |  | 
5 | 2.2 | CCCCC1=NC2(CCCC2)C(C)(C)C(=O)N1Cc1ccc(-c2ccccc2-c2nnn[nH]2)cc1 |  |  |  |  |  |  |  |  |  |  |  |  | 
6 | 1 | CCCCC1=NC2(CCCC2)CC(=O)N1Cc1ccc(-c2ccccc2-c2nn[nH]n2)cc1 | ~33 | ~29 | ~32 | ~29 | ~27 | ~35 | ~15 | ~18 | ~10 | ~15 | ~14 | ~17 | 
